Values of other authors as cited in patent publication US6653500B2, “Method for the manufacture of Anagrelide” (Shire US Inc., priority 2000, dated 2003).
Like-named read-outs stand apart in the source and are kept apart here.

What was measured:
[1] = solid
[2] = humans, radiolabeled base
[3] = monkeys, radiolabeled base

- aqueous solubility [1]: low
- absorption into blood plasma [2]: complete absorption
- absorption into blood plasma [3]: complete absorption
- solubility in most organic solvents: low
Compound: O=C1CN2Cc3c(ccc(Cl)c3Cl)N=C2N1 [compound III, 6,7-dichloro-1,5-dihydroimidazo[2,1-b]quinazolin-2(3H)-one]
